This series has as its system keloid. The series is described as follows: Irritation at the keloid site following application of capsaicin. Particulars: topical, rubbed on the keloid; Capzasin HP 0.1% capsaicin. It counts as in vivo, human. The source says: In an embodiment, a method of treating or managing a keloid includes firstly removing flurandrenolide tape (or CORDRAN® (flurandrenolide) tape) by peeling it off the keloid and secondly, cleaning the keloid with water and soap, and then drying the keloid with a cloth or a paper towel. After the keloid is dried, graphites ointment is applied in a manner that includes completely or partially covering the keloid with the graphites ointment. Graphites 6C ointment is available in the open market, for example, sold on the interne by a number of companies such as Pomade, Nelson, Boiron, or SBL. […] In an aspect of the method of treatment, witch hazel ointment is applied to the keloid evenly on the keloid either separately or together with graphites. Witch hazel (Hamamelis virginiana) is available in the open market as a cream, lotion ointment or liquid. […] The Hamamelis ointment is allowed to be absorbed by the keloid. In an embodiment, capsaicin cream or ointment is applied to the keloid. Capsaicin, 8-Methyl-N-vanillyl-trans-6-nonenamide) (CH3)2CHCH═CH(CH2)4CONHCH2C6H3-4-(OH)-3—(OCH3)) is the active composition or mixture of chili peppers, which are plants belonging to the genus Capsicum. Capsaicin may be obtained over-the-counter as for example, Capzasin HP 0.1% capsaicin (brand name CHATTEM Registered Trade mark, by Chattem Inc., TN). […]

Each structure is given as a SMILES string.

The source of these data is patent US8877185B2, “Managing and treating keloids” (priority 2012, dated 2014).

As for `COc1cc(CNC(=O)CCCC/C=C/C(C)C)ccc1O` [Capsaicin, 8-Methyl-N-vanillyl-trans-6-nonenamide], the “Period of intense irritation or pain at the site of the keloid following application” value was “about 30 minutes”.
